Tests used:
[1] = test system: Gardiquimod-Induced IL-6 in Human Blood; experiment: Gardiquimod-induced IL-6 in human whole blood; format: cell-based; settings: Gardiquimod 4 μg/ml overnight, read-out: Human Whole Blood Assays (IC5050), IL-6 Gard
Experimental: (§1) To assess the effect of whole blood on the potency of compound I-1 and Comparison-1, the compounds were evaluated for their inhibitory potential on TLR dependent cytokine release in human blood. Freshly drawn peripheral blood from healthy volunteers was incubated with test compound and stimulated overnight with LPS or Gardiquimod. The serum was isolated after centrifugation and TNF-α and IL-6 were measured by ELISA.
Whole blood of healthy volunteers was collected in Vacutainer containing Sodium Heparin and 40 μL of blood was plated to each well. Compound was serially diluted in DMSO from 2 mM in 3-fold dilutions, and then diluted 1:100 in media with 10% FBS. 50 μL of 2× compound per well in duplicate was added to each well and incubated for one hour. 10 μL Gardiquimod was added to each well at a final concentration of 4 μg/ml and cells were incubated overnight.
100 μL of PBS was added to each well and centrifuged for 10 minutes at 1000 RPM 25 μL of supernatant were taken, and IL-6 was measured by Luminex Flexmap 3d.

[2] = test system: LPS Induced TNF-α in Human Blood; experiment: LPS induced TNF-α in human whole blood; format: cell-based; settings: LPS 0.5 ng/ml overnight, read-out: Human Whole Blood Assays (IC5050), TNFα LPS
Experimental: as §1
Whole blood of healthy volunteers was collected in Vacutainer containing Sodium Heparin and plate 40 μL of blood to each well. Compound was serially diluted in DMSO from 2 mM in 3-fold dilutions, and then diluted 1:100 in media with 10% FBS. 50 μL of 2× compound was added per well in duplicate to each well and incubate for one hour. 10 μL LPS was added to each well at a final concentration of 0.5 ng/ml and allow cells to incubate overnight.
100 μL of PBS was added to each well and centrifuged for 10 minutes at 1000 RPM. 25 μL of supernatant were taken, and TNF-α was measured on Luminex Flexmap 3d.

[3] = target: T1, IRAK1 (Homo sapiens, UniProt P51617); experiment: IRAK1 Adapta assay; format: biochemical; settings: for IC50: n = 1, read-out: IRAK4 IC50 Adapta (n = 1)
Experimental: • Bar-coded Corning, low volume, white 384-well plate (Corning Cat. #4512) • Test Compounds: The Test Compounds are screened in 1% DMSO (final) in the well. For 10 point titrations, 3-fold serial dilutions 10 μM. • Substrate/Kinase Mixture: The 2×IRAK1/Histone H3 (1-20) peptide mixture is prepared in 50 mM HEPES pH 7.5, 0.01% BRIJ-35, 10 mM MgCl2, 1 mM EGTA. • ATP Solution: All ATP Solutions are diluted to a 4× working concentration in water. • ATP Km apparent is previously determined using a radiometric assay except when no substrate is available in which case an Adapta assay is conducted. • Detection Mix: The Detection Mix is prepared in TR-FRET Dilution Buffer. The Detection mix consists of EDTA (30 mM), Eu-anti-ADP antibody (6 nM) and ADP tracer. The detection mix contains the EC60 concentration of tracer for 5-150 μM ATP. IRAK1 Method • 1. 100 nL—100× Test Compound in 100% DMSO • 2. 2.4 μL—30 mM HEPES • 3. 2.5 μL—4×ATP Solution • 4. 5 μL—2× Substrate/Kinase Mixture
The final 10 μL Kinase Reaction consists of 3.17-42 ng IRAK1 and 100 μM Histone H3 (1-20) peptide in 32.5 mM HEPES pH 7.5, 0.005% BRIJ-35, 5 mM MgCl2, 0.5 mM EGTA. • 5. 30-second plate shake • 6. 1-minute centrifuge at 1000× g • 7. 60-minute Kinase Reaction incubation at room temperature • 8. 5 μL—Detection Mix • 9. 30-second plate shake • 10. 1-minute centrifuge at 1000× g • 11. 60-minute Detection Mix equilibration at room temperature • 12. Read on fluorescence plate reader and analyze the data

[4] = test system: TLR4-dependent cytokine production in mouse macrophages; experiment: TLR4-dependent cytokine production in mouse macrophages; format: cell-based
[5] = target: T1, IRAK1; experiment: IRAK1 ADP-Glo kinase assay; format: biochemical; settings: read-out: IRAK1 ADP-Glo Kinase, 8 pt EC50
[6] = test system: TLR4-induced TNF-α production by human THP-1 cells; experiment: TLR4-induced TNF-α in THP-1 cells; format: cell-based
Experimental: THP-1 cells (100K in 100 μL/well) were primed with 25 ng/mL IFN-γ for 18 hours at 37° C., 5% CO2. Compound was serially diluted in DMSO from 2.5 mM in 4-fold dilutions, and then diluted 1:125 in RPMI 1640 complete media with 10% FBS. 100 μL/well 2× compound was mixed with the 100 μL/well IFN-7 primed THP-1 in 96 well flat-bottom white tissue culture plates. The cells were pre-incubated with compound for 1 hour at 37° C., 5% CO2 and before addition of 10 μL/well 21×LPS to give a final concentration of […] for LPS. The cells were stimulated with LPS for 18 hours at 37° C., 5% CO2. After centrifugation, 100 μL/well supernatant was extracted by using a multichannel pipette. IL-23p19 or TNF-α protein in the supernatant were measured by sandwich ELISA. The remaining IFN-7 primed THP-1 cell pellets were used to perform cell viability assays to determine compound cell toxicity. The plates were read with a luminometer, and the chemiluminescence values were entered into Athena (Rigel) for curve fitting, EC50 calculation, and database storage.

[7] = test system: IL-10-induced production of the cytokine IL-6 in primary human endothelial cells; experiment: IL-6 production in primary human endothelial cells; format: cell-based

T1 sequence (P51617 whole entry): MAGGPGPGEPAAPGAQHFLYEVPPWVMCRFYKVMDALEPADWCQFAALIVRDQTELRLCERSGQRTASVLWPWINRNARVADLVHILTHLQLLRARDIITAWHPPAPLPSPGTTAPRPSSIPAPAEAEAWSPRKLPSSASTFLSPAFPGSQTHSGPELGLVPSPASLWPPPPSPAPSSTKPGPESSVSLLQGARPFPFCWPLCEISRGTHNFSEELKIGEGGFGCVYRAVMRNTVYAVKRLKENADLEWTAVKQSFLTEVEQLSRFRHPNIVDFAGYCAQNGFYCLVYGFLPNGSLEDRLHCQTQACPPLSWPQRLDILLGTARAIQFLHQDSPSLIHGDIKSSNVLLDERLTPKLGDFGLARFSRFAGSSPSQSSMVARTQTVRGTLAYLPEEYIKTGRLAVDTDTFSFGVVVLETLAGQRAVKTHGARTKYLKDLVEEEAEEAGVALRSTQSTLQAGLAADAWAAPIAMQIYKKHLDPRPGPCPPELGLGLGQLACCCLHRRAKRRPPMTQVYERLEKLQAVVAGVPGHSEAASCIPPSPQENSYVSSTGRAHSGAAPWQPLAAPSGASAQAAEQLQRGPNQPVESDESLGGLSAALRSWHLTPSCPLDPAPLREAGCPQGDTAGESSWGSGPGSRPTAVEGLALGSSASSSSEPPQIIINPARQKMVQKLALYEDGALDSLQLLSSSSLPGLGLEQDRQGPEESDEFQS

Row | Structure (SMILES) | IC50 [1] [nM] | IC50 [2] [nM] | IC50 [3] [nM] | TLR4-dependent cytokine production in mouse macrophages [4] | EC50 [5] [nM] | TLR4-induced TNF-α production by human THP-1 cells [6] | IL-10-induced production of the cytokine IL-6 in primary human endothelial cells [7] | EC50 [3] [nM]
1 | CCO[C@H]1CC[C@H](n2cc(NC(=O)c3csc(-c4cn[nH]c4)n3)c(-c3nc(F)ccc3F)n2)CC1 [Comparison-1, reference compound] | 1400 | 1400 | 14 | – | – | – | – | –
2 | CCO[C@H]1CC[C@H](n2cc(NC(=O)c3csc(-c4cn[nH]c4)n3)c(-c3ncccn3)n2)CC1 [Compound I-1, N-(1-((1r,4r)-4-ethoxycyclohexyl)-3-(pyrimidin-2-yl)-1H-pyrazol-4-yl)-2-(1H-pyrazol-4-yl)thiazole-4-carboxamide] | 124 | 224 | 4 | potent inhibitor | 8.1 | inhibits | potently inhibits | 4

From patent US12384775B2, “Pyrimid-2-yl-pyrazole compounds as IRAK inhibitors” (Rigel Pharmaceuticals, Inc., priority 2022, dated 2025)
